In patent US20230314443A1, “METHODS OF IDENTIFYING INTERACTIONS OF A COMPOUND AND A CONDENSATE, OR A COMPONENT THEREOF, AND USES THEREOF” (Dewpoint Therapeutics, Inc., priority 2020, published 2023):

Key:
FUS-mEGFP/RNA droplets = biological target: T1, FUS-mEGFP/RNA droplets (Homo sapiens, UniProt P35637); assay: Rho800 titration in FUS-mEGFP/RNA droplets (confocal imaging of Rho800 and FUS-mEGFP intensity inside droplets); conditions: increasing Rho800 concentrations, FIG. 4
T1 sequence (P35637 1-526): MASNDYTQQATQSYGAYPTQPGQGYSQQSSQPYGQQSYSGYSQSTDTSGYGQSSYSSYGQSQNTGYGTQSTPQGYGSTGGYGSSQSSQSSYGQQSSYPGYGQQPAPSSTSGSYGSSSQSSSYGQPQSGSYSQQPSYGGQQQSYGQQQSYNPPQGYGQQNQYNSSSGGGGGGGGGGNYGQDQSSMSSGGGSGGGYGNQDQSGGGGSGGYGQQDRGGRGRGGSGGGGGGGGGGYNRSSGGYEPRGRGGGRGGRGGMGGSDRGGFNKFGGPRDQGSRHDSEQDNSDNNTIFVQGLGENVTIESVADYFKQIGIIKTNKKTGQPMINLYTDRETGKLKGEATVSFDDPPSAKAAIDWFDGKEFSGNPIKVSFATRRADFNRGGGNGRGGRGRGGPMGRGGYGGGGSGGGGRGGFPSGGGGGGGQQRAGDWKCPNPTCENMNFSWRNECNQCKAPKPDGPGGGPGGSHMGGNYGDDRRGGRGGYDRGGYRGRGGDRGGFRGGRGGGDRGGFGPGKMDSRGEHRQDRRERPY
Method: For partitioning study, droplets were prepared in a low-attachment 384-well plate by mixing recombinant FUS-mEGFP protein with synthetic PrD RNA, in the presence of the indicated concentration of Rho800, at a final concentration of […] FUS-mEGFP and 250 nM PrD RNA, using an automated liquid handler. The droplets were incubated at room temperature, in the dark for 4 hours and imaged using a high content confocal fluorescence microscope. Values indicated on the y-axis of FIG. 4 (n=3) were obtained by quantitative image analysis and represent the mean per well intensity of FUS-mEGFP and Rho800 inside segmented droplets.

FUS-RRM = biological target: T2, FUS-RRM (Homo sapiens, UniProt P35637); assay: NMR 1H/15N-HSQC titration of FUS-RRM with Rho800 (chemical shift perturbations); type: binding; conditions: CSPs by 1H/15N-HSQC 2D-NMR; FIG. 5A, 5B
T2 construct: made in house; host or cells: E. coli
T2 sequence (P35637 285-371 limits assumed): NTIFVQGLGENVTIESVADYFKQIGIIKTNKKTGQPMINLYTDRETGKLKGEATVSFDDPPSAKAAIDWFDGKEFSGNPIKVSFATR
Method: For binding study, recombinant ^15N-isotope and ^15N/^13C-labeled FUS-RRM proteins were expressed in E. coli and purified using published methods. NMR peak assignments were transferred from publicly available data repositories and confirmed using standard 3D NMR methods. […] protein was titrated with Rho800, ^1H/^15N-HSQC (heteronuclear single quantum coherence) were recorded, and chemical shift perturbations (CSPs) were calculated from the […] Rho800 spectra.

FUS-SNAP condensates = biological target: T3, FUS-SNAP condensates (Homo sapiens, UniProt P35637); assay: Partitioning of RhoB into FUS-SNAP condensates formed in vitro (fluorescence and mass spectrometry); conditions: RhoB 5 μM and 1.25 μM; fluorescence spectroscopy (RhoB-FL) and mass spectroscopy (RhoB-MS); fraction of RhoB in supernatant; FIG. 3A
T3 sequence (P35637 1-526): T1 sequence (P35637 1-526)
Method: SNAP-tagged FUS protein (“FUS-SNAP”) and RhoB were mixed and subjected to a phase separation condition. The final concentration of RhoB in the reaction was 5 μM and 1.25 μM. For control experiment, no RhoB was added. The partition characteristic of RhoB to FUS-SNAP condensate was then measured by both a fluorescence spectroscopy and a mass spectroscopy-based technique described herein.
Images of the condensate droplets were acquired with a confocal microscope for appropriate setting for RhoB. The background signal of FUS-SNAP droplets in the absence of RhoB was also recorded. Fluorescence intensity was measured inside a FUS-SNAP condensate and in a region next to (outside) the FUS-SNAP condensate, and corrected for background signal (no RhoB controls), to calculate the fraction of RhoB in extra-condensate solution (i.e., supernatant).
A mass spectrometry-based method was used to measure the partition characteristics of RhoB and compared to measurements obtained using the fluorescence-based assay above. […] The amount of RhoB in the supernatant and a reference reaction were measured using mass spectrometry. The partition characteristic was then calculated based on the fraction of RhoB in extra-condensate solution (i.e., supernatant).

FUS-SNAP protein = biological target: T4, FUS-SNAP protein (Homo sapiens, UniProt P35637); assay: Binding affinity of RhoB to FUS-SNAP protein in the light phase (Dianthus MST); conditions: FIG. 3B
T4 sequence (P35637 1-526): T1 sequence (P35637 1-526)
Method: The binding affinity (Kd) of RhoB to FUS-SNAP protein in the light phase was measured using Dianthus MST technology.

FUS-EGFP condensate = biological target: T5, FUS-EGFP condensate (Homo sapiens, UniProt P35637); assay: Modulation of FUS-EGFP partitioning into the condensate by RhoB (confocal microscopy); type: biochemical; conditions: 1.5 μM RhoB vs no RhoB; FIG. 3C
T5 sequence (P35637 1-526): T1 sequence (P35637 1-526)
Method: EGFP-tagged FUS protein (“FUS-EGFP”) and RhoB were mixed and subjected to phase separation condition. The final concentration of RhoB in the reaction was 1.5 μM. For control experiment, no RhoB was added. Images were acquired with a confocal microscope, and EGFP signal inside (I-in) and outside (I-out) of the FUS-EGFP condensate was measured as described above.

N#CC1=c2cc3c4c(c2Oc2c1cc1c5c2CCCN5CCC1)CCC[N+]=4CCC3 [Rho800]
partitioning of Rho800 into the condensate droplets (FUS-mEGFP/RNA droplets; 4 hours at room temperature): increased partitioning of the compound into the condensate droplets | partitioning of FUS-mEGFP in the condensate droplets in the presence of Rho800 (FUS-mEGFP/RNA droplets): FUS-mEGFP de-partitioning from the condensate droplets | binding of Rho800 to FUS-RRM domain (FUS-RRM): binds directly to the FUS-RRM domain

CCN(CC)c1ccc2c(-c3ccccc3C(=O)O)c3ccc(=[N+](CC)CC)cc-3oc2c1 [RhoB, Rhodamine B]
partitioning of RhoB into FUS-SNAP condensates (FUS-SNAP condensates): partitions into FUS-SNAP condensates | Kd (FUS-SNAP protein): 17.1 µM | partitioning of EGFP-labeled FUS into the condensate in the presence of RhoB (FUS-EGFP condensate): partitioned less into the condensate
